Experimental data reported in patent US20120277312A1, “Ethylgallate and Related Compounds as a Treatment for Sepsis and Septic Shock” (priority 2009, published 2012).
Marks after values point to notes of the source that are not given here.

Test system: Escherichia coli septic shock in dogs
Experiment: In-vivo model of Escherichia coli septic shock in dogs
Set-up: species or system dog
Conditions: for PCO2: arterial; for Urine-volume: per hour
From the text: We have thus far studied 5 dogs in septic shock in which ethyl gallate was infused. We have compared the results obtained in this group with those found in septic animals (n=5) in which this treatment was not given. In addition, in preliminary experiments, we have looked at the effect of ethyl gallate infusion on hemodynamics in non-septic animals (n=3). In a time control non-septic group in which placebo (normal saline solution) was given, we have studied one animal.
The E coli model used in the studies was identical to that previously described (2). Sepsis was induced by the intravenous infusion of 10^10 colony forming units of live E coli (designation 011:B4). The bacteria were suspended in normal saline solution and were given over 0.5 hour. A constant infusion of approximately 5×10^9 colony forming units/hour of E coli was then maintained over the duration of the two studies.
The animals (16-24 kg) were initially anesthetized with thiopental sodium (20 mg/kg, intravenously) and constantly infused with sufentanil citrate (1-3 μg/min) and midazolam (5 μg/kg/min) (2). Drug rates were adjusted as required to abolish the palpebral reflex. The animals were placed in the supine position; the trachea was […] with an endotracheal tube; and the lungs were mechanically ventilated at a tidal volume of 20 ml/kg. The ventilator rate was initially set to maintain blood pH at approximately 7.35. The rate was increased as necessary to reverse the metabolic acidosis that developed over the course of the study. Approximately 100% oxygen was inspired, so that hypoxemia would not affect the results of the study.
Under sterile conditions and by percutaneous techniques (Arrow International, Reading, Pa.) (2), a thermister tipped catheter was advanced from the right jugular vein into the pulmonary artery to measure mean pulmonary arterial pressure (Ppa), mean pulmonary capillary wedge pressure (Pwp), mean right atrial pressure (Rap), and thermodilution cardiac output (CO) (Edwards Lifesciences, Irvine, Calif.). Another introducer was placed into the left jugular vein for administration of intravenous saline solution, the E coli infusion, and the treatment or placebo drugs. A catheter was placed into the bladder through the urethra to measure urine output over the course of the study. A polyethylene catheter was percutaneously placed into the femoral artery to measure MAP and to obtain samples of blood for arterial PO2, PCO2, pH, hematocrit (Hct), serum electrolytes and creatinine, liver function tests, and lactate concentrations. The laboratory tests were performed by the clinical laboratories at the Health Sciences Centre.
All vascular catheters were connected to transducers (Cobe, Argon Medical Devices Inc, Athens, Tex.), were referenced relative to the left atrium, and were connected to a chart recorder (Astro-Med, W Warwick, R.I.) (2). Heart rate (HR) was measured from the recorder tracing. Stroke-volume (SV) was calculated as CO/HR. Systemic vascular resistance (SVR) was calculated from [(MAP−Pra)/CO]*80.
Stroke work (SW) was our primary index of cardiac performance and the primary hemodynamic endpoint chosen (2). At constant preload, SW reflects both the decrease in afterload and the change in contractile function that accompany sepsis. SW was determined at approximately the same Pwp at each measurement interval. The baseline Pwp usually averaged ≈8-10 mmHg, and normal saline solution was given as necessary to maintain Pwp constant over the experimental period. SW was calculated from SV*(MAP−Pwp).
The purpose of this study was to determine whether ethyl-gallate could reverse the fall in MAP that occurs in this sepsis model. Ethyl gallate was infused after MAP pressure fell approximately 30 to 40% from the baseline value in which this decline in MAP was not responsive to volume infusion to return Pwp to the baseline value (septic shock condition). […]

[1] = septic dogs n = 5, 3 hrs post treatment
[2] = septic dogs n = 5, 5 hrs post treatment
[3] = septic dogs n = 5, Baseline (before sepsis and treatment)
[4] = septic dogs n = 5, septic shock (before treatment)
[5] = septic dogs n = 5, 1 hr post treatment
[6] = septic dogs n = 5, 2 hrs post treatment
[7] = septic dogs n = 5, 4 hrs post treatment
[8] = septic dogs, ethyl-gallate treated group

In the case of `CCOC(=O)c1cc(O)c(O)c(O)c1` [ethyl gallate], the “duration of increase in mean arterial pressure after bolus” value (2 gram intravenous bolus after 5 hours of septic shock, one animal) is reported as “over 75 minutes”, the PCO2 [1] is reported as 21 ± 2*# mmHg and the PCO2 [2] is reported as 19 ± 2* mmHg. The PCO2 [3] was 29 ± 4 mmHg, the PCO2 [4] was 27 ± 4 mmHg and the “duration of increase in MAP after bolus” value (bolus after the study was completed, one animal of placebo group) was “over 1 hr”. The “time in which infusion increased arterial pressure” value (individual septic dog, FIG. 2) was “approximately 18 minutes”, the Urine-volume [5] was 67 ± 58 mL and the Urine-volume [6] was 42 ± 19 mL. For the same compound, the Urine-volume [1] was 42 ± 19 mL, the Urine-volume [7] was 36 ± 26 mL and the Urine-volume [2] was 36 ± 26 mL. For the same compound, the Urine-volume [4] was 45 ± 34 mL, the “dogs that died over the course of the study” value (septic dogs) was “None” and the HR [5] was 116 ± 47 beats/min. The Ppa [5] was 18 ± 4.8 mmHg, the Rap [5] was 8 ± 1.3 mmHg and the HR [6] was 111 ± 33 beats/min. It also gave a Ppa [6] of 18 ± 5 mmHg, a Rap [6] of 8.6 ± 1.7 mmHg and an ALT [1] of 210 ± 90 IU. For the same compound, the AST [1] was 268 ± 162 IU, the “Alk P'tase” value [1] was 54 ± 36 international units and the “Arterial pH” value [1] was 7.21 ± .08*. For the same compound, the HR [1] was 107 ± 34 beats/min, the LD [1] was 253 ± 172* IU and the Platelets [1] was 100 ± 37* ×10^9/L. For the same compound, the Ppa [1] was 21 ± 6 mmHg, the Rap [1] was 8.8 ± 0.8 mmHg and the WBC [1] was 2.1 ± 1.9 ×10^9/L. The bilirubin [1] was 11 ± 4.5* mmol/L, the chloride [1] was 130 ± 6* mmol/L and the glucose [1] was 4.4 ± 1.5 mmol/L. For the same compound, the sodium [1] was 152 ± 5 mmol/L, the “total CO2” value [1] was 14 ± 2* mmol/L and the HR [7] was 115 ± 36 beats/min. It also gave a Ppa [7] of 21 ± 9 mmHg, a Rap [7] of 9.2 ± 1.1 mmHg and an ALT [2] of 236 ± 56 IU. The AST [2] was 337 ± 141 IU, the “Alk P'tase” value [2] was 91 ± 39* international units and the “Arterial pH” value [2] was 7.14 ± .06*. The HR [2] was 110 ± 34 beats/min, the LD [2] was 335 ± 175* IU and the Platelets [2] was 74 ± 21* ×10^9/L. The Ppa [2] was 23 ± 7* mmHg, the Rap [2] was 8.6 ± 1.3 mmHg and the WBC [2] was 2.64 ± 2.3 ×10^9/L. For the same compound, the chloride [2] was 130 ± 7* mmol/L, the glucose [2] was 3.6 ± 2.2 mmol/L and the sodium [2] was 153 ± 6 mmol/L. The “total CO2” value [2] was 14 ± 2* mmol/L, the ALT [3] was 52 ± 20 IU and the AST [3] was 18 ± 4 IU. For the same compound, the “Alk P'tase” value [3] was 31 ± 11 international units, the HR [3] was 59 ± 8* beats/min and the LD [3] was 26 ± 4 IU. The Platelets [3] was 196 ± 18 ×10^9/L, the Ppa [3] was 16 ± 1.3 mmHg and the Rap [3] was 9 ± 1.2 mmHg. For the same compound, the WBC [3] was 3.2 ± 1.9 ×10^9/L, the chloride [3] was 118 ± 3 mmol/L and the glucose [3] was 5.5 ± 0.3 mmol/L. The sodium [3] was 151 ± 2 mmol/L, the “total CO2” value [3] was 21 ± 3 mmol/L and the ALT [4] was 139 ± 116 IU. The AST [4] was 137 ± 130 IU, the “Alk P'tase” value [4] was 41 ± 27 international units and the “Arterial pH” value [4] was 7.26 ± .06*. For the same compound, the HR [4] was 145 ± 33 beats/min, the LD [4] was 128 ± 82 IU and the Platelets [4] was 117 ± 27* ×10^9/L. For the same compound, the Ppa [4] was 15 ± 2.3 mmHg, the Rap [4] was 7 ± 1.3 mmHg and the WBC [4] was 1.3 ± 0.7 ×10^9/L. For the same compound, the chloride [4] was 123 ± 8*+ mmol/L, the glucose [4] was 5.3 ± 0.3 mmol/L and the sodium [4] was 150 ± 7+ mmol/L. The “total CO2” value [4] was 18 ± 2* mmol/L, the urine output (septic dogs, between the two groups) was “no difference” and the “mean arterial pressure (MAP)” value (septic dogs, by 1 hour post-treatment, remained over the course of study) was “returned to the baseline value”. For the same compound, the serum haemoglobin concentration (septic dogs, end of the study, vs non-ethyl gallate treated group) was “higher”, the “time post infusion by which increase in MAP was evident” value (septic dogs, ethyl gallate infusion) was at most 20 min and the “cardiac output (CO)” value [8] was “did not fall”. For the same compound, the “stroke volume (SV)” value [8] was “did not fall”, the “stroke work (SW)” value (septic dogs, over the 5 post-treatment measurement intervals, vs non-treated group) was “generally higher” and the serum creatinine (septic dogs, over the course of the study) was “decreased”. For the same compound, the “creatine kinase (CK), evidence of rhabdomyolysis” value (septic dogs, vs non-treated group) was “less”, the “normal saline required to maintain Pwp at the baseline value” (septic dogs, vs 4.7±0.8 L in non-treated group, P<0.05) was 3.38 ± 0.8 L and the “systemic vascular resistance (SVR)” value (septic dogs, vs septic shock condition and vs non-treated septic group) was “significantly increased”.
